Results published in ChEMBL document CHEMBL1151156, “Lakoochins A and B, new antimycobacterial stilbene derivatives from Artocarpus lakoocha” (J Nat Prod, 2004).
≈ marks a conversion by molar mass, not a printed value. Calls of active or inactive are those of the source. The rule behind the calls is not given here.

Tests used:
[1] = Cytotoxicity against human BC cells by SRB assay; format: functional, cell-based
[2] = test system: Mycobacterium tuberculosis; assay: Antimycobacterial activity against Mycobacterium tuberculosis H37Ra after 4 days by microplate alamar blue assay; format: functional; details: 96 h
[3] = test system: KB; assay: Cytotoxicity against human KB cells at 20 ug/ml by SRB assay; format: functional, cell-based
[4] = test system: KB; assay: Cytotoxicity against human KB cells by SRB assay; format: functional, cell-based

| SMILES | IC50 [1] [µg/mL] | MIC [2] [µg/mL] | Activity [3] | IC50 [4] [µg/mL] |
| --- | --- | --- | --- | --- |
| Cc1c2ccncc2c(C)c2c1[nH]c1ccccc12 [ELLIPTECINE] | 0.2 (≈ 0.812 µM) |  |  |  |
| NNC(=O)c1ccncc1 [ISONIAZID] |  | 0.04 (≈ 0.292 µM) |  |  |
| NC[C@H]1O[C@H](O[C@H]2[C@H](O)[C@@H](O[C@H]3O[C@H](CO)[C@@H](O)[C@H](N)[C@H]3O)[C@H](N)C[C@@H]2N)[C@H](O)[C@@H](O)[C@@H]1O.O=S(=O)(O)O [KANAMYCIN SULFATE] |  | 2 |  |  |
| COc1cc(OC)c(CC=C(C)C)c(-c2cc3ccc(O)cc3o2)c1CC=C(C)C [LAKOOCHIN A] | 6.1 (≈ 15 µM) | 12.5 (≈ 30.7 µM) | inactive |  |
| CC(C)=CCC/C(C)=C/Cc1c(O)cc(O)c(CC=C(C)C)c1-c1cc2ccc(O)cc2o1 [LAKOOCHIN B] | 3.1 (≈ 6.94 µM) | 50 (≈ 112 µM) |  | 6.1 (≈ 13.7 µM) |
